Test results reported in patent US10975070B2, “Ghrelin receptor agonist for treatment of cachexia” (RaQualia Pharma Inc., priority 2010, dated 2021).

Columns and labels:
[1] = test system: rats with transplanted cancer tissue (sarcoma cells induced by methylcholanthrene); experiment: Inhibitory effect on weight loss of rats with transplanted cancer (methylcholanthrene-induced sarcoma); type: in vivo; details: once a day for 5 to 14 days from 6-7 days after transplantation, dose-dependent, result in words
Source text: Inhibitory Effect on Weight Loss of Rats with Transplanted Cancer
The effect of Compound A was examined using this model. Sarcoma cells induced by methylcholanthrene were subcutaneously injected into the abdomen of rats. The rats were reared in a normal environment for about eight days and in this way animals used to provide cancer were produced. An amount of 0.2 to 0.3 g of fresh cancer tissue obtained from the animals used to provide cancer was subcutaneously transplanted into the abdomen of rats under anesthesia. From 6 days to 7 days after the transplantation of the cancer, Compound A was administered once a day for 5 days to 14 days, and the body weight was daily measured.
An experiment was conducted on Compound B in the same manner as described above.

[2] = test system: tumor-bearing mice prepared using a murine colon cancer cell line, CT26; experiment: Inhibitory effect on weight loss of tumor-bearing mice (CT26 colon cancer transplant); type: in vivo, BALB/c mice
Source text: Inhibitory Effect on Weight Loss of Tumor-Bearing Mice
Tumor-bearing mice prepared using a murine colon cancer cell line, colon 26, are known to closely reproduce the symptoms of cancer cachexia (Cancer Research, 50, 4528-4532 (1990)). In this experiment, using tumor-bearing mice prepared using a murine colon cancer cell line, CT26, that was established in the same method as that for producing the murine colon cancer cell line, colon 26, (The Journal of Immunology, 154, 4685-4692 (1995)), Compound A of the present invention was evaluated for effects on the body weights of said mice. That is, CT26 colon cancer cells (5×10^6) were subcutaneously transplanted in the flank of BALB/c mice at 7 weeks of age. The transplanted mice were divided into two groups, and once every day from the following day of the transplantation, water for injection was orally administered to the control group, whereas Compound A was orally administered at a dose of 75 mg/kg to the compound administration group. The administered volume was […]. Five and ten days after the transplantation, the tumor size (major axis and minor axis) in each mouse was measured, and the tumor volume was calculated from the following formula: (major axis)×(minor axis)^2/2. In addition, the body weight of each mouse was measured daily after the transplantation. The tumor volume 5 and 10 days after the transplantation of the CT26 murine colon cancer cells, and the body weight 10 days after the transplantation are shown in Table 1. Data are expressed as the mean±standard error.

[3] = CT26 tumor-bearing BALB/c mice, 75 mg/kg orally once daily from the day after transplantation, mean ± standard error

| Compound | Progression of the weight loss in tumor-bearing animals [1] | Body weight 10 days after transplantation [2, 3] | Tumor volume 5 days after transplantation [2, 3] | Tumor volume 10 days after transplantation ([2]; CT26 tumor-bearing BALB/c mice, 75 mg/kg orally once daily from the day after transplantation, mean ± standard error, 75 mg/kg) | Effect on body weight 10 days after transplantation in comparison with the control group ([2]; CT26 tumor-bearing mice, 75 mg/kg orally, critical ratio of 0.1% or lower, result in words) | Effect on tumor volume in comparison with the control group ([2]; CT26 tumor-bearing mice, 75 mg/kg orally, result in words) |
| --- | --- | --- | --- | --- | --- | --- |
| CN1N=C2CCN(C(=O)[C@@H](COCc3ccccc3)NC(=O)C(C)(C)N)C[C@@]2(Cc2ccccc2)C1=O [Compound A, 2-amino-N-[2-(3a-(R)-benzyl-2-methyl-3-oxo-2,3,3a,4,6,7-hexahydro-pyrazolo[4,3-c]pyridin-5-yl)-1-(R)-benzyloxymethyl-2-oxo-ethyl]-isobutyramide] | significantly inhibited the progression of the weight loss | 22.3 ± 0.2 g | 137 ± 8 mm^3 | 291±25 mm^3 | significantly increased the body weight | not capable of reducing the tumor volume |
| CC(C)(N)C(=O)N[C@H](COCc1ccc(F)cc1F)C(=O)N1CCC2=NN(CC(F)(F)F)C(=O)[C@]2(Cc2ccccn2)C1 [Compound B, 2-amino-N-[1-(R)-(2,4-difluoro-benzyloxymethyl)-2-oxo-2-(3-oxo-3a-(R)-pyridin-2-ylmethyl-2-(2,2,2-trifluoro-ethyl)-2,3,3a,4,6,7-hexahydro-pyrazolo[4,3-c]pyridin-5-yl)-ethyl]-2-methyl-propionamide] | significantly inhibited the progression of the weight loss |  |  |  |  |  |
